# Experimental data reported in PMC8537658 (Pharmaceuticals, 2021).
# Where two headings read alike, the source gives them in different places.
# Columns and labels:
# SARS-CoV-2 RBD peptide = SARS-CoV-2 RBD peptide (Severe acute respiratory syndrome coronavirus 2, UniProt P0DTC2); test: biochemical; format: binding; conditions: for kon: read-out: RBD kon; for koff: read-out: RBD kdis
# binding of RBD to ACE2 = binding of RBD to ACE2 (Severe acute respiratory syndrome coronavirus 2, UniProt P0DTC2); test: biochemical; set-up: species or system SARS-CoV-2; human
# ACE2 = target: T1, ACE2 (Homo sapiens, UniProt Q9BYF1); test: Bio-layer interferometry, binding to immobilized ACE2-His; conditions: for kon: read-out: ACE2 kon; for Kd: 1:1 binding model, KD = kdis/kon; for koff: read-out: ACE2 kdis
# T1 construct: purchased Sino Biological
# T1 sequence (Q9BYF1 18-805): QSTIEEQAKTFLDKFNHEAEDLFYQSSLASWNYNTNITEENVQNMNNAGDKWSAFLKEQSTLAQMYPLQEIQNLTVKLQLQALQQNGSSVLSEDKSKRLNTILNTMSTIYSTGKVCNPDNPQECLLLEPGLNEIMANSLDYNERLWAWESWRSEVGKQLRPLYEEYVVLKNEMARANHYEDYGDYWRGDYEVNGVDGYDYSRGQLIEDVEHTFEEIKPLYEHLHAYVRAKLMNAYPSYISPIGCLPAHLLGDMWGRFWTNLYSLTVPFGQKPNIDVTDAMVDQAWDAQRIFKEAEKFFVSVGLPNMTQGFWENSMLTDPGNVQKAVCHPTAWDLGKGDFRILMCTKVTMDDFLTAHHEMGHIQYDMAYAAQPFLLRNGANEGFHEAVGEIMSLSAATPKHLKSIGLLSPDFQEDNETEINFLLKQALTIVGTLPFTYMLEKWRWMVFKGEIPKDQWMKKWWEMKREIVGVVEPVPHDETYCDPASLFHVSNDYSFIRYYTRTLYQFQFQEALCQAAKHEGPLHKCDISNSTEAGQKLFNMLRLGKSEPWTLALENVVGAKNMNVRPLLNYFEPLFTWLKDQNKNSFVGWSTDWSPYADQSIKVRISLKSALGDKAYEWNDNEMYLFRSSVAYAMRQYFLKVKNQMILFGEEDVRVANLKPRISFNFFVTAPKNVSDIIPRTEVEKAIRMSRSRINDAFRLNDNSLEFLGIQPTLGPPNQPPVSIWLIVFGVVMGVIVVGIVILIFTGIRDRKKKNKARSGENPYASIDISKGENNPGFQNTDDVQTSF
# [1] = association rate, bio-layer interferometry
# [2] = dissociation rate, bio-layer interferometry
Compound,Kd (SARS-CoV-2 RBD peptide; KD for RBD) [M],Kd (SARS-CoV-2 RBD peptide; RBD KD (M)) [M],kon (SARS-CoV-2 RBD peptide) [M⁻¹ s⁻¹],IC50 (binding of RBD to ACE2) [µM],kon (ACE2; [1]) [M⁻¹ s⁻¹],Kd (ACE2; bio-layer interferometry) [µM],koff (ACE2; [2]) [s⁻¹],interaction with the RBD (result in words) (SARS-CoV-2 RBD peptide),koff (ACE2) [s⁻¹],kon (ACE2) [M⁻¹ s⁻¹],koff (SARS-CoV-2 RBD peptide) [s⁻¹]
C[C@H]1[C@H](N2CCS(=O)(=O)CC2)O[C@@H]2O[C@@]3(C)CC[C@H]4[C@H](C)CC[C@@H]1[C@@]24OO3 [Artemisone],3.6e-07,3.63e-07,8.4e+07,63.1 ± 9.63,971,681,0.661,,,,
CCN(CC)Cc1cc(Nc2ccnc3cc(Cl)ccc23)ccc1O [Amodiaquine],,,,,,31.3,,,,,
C[C@H]1[C@H](OC(=O)CCC(=O)O)O[C@@H]2O[C@@]3(C)CC[C@H]4[C@H](C)CC[C@@H]1[C@@]24OO3 [Artesunate],,,,,,,,No interaction,0.0907,1290,
COc1ccc2nc3cc(Cl)ccc3c(Nc3cc(CN4CCCC4)c(O)c(CN4CCCC4)c3)c2n1 [Pyronaridine],5.7e-05,5.68e-05,598,49.7 ± 4.19,584,51.3,0.0299,,,,0.0339
C[C@H]1[C@H](N2CCSCC2)O[C@@H]2O[C@@]3(C)CC[C@H]4[C@H](C)CC[C@@H]1[C@@]24OO3 [Artemiside],,,,,4290,124,0.533,No interaction,,,
COc1cc(/C=C/C(=O)CC(=O)/C=C/c2ccc(O)c(OC)c2)ccc1O [Curcumin],,,,,600,20.3,0.0122,No interaction,,,
C=C[C@H]1C[N@@]2CC[C@H]1C[C@H]2[C@H](O)c1ccnc2ccc(OC)cc12 [Quinine],,,,,877,9.35,0.00819,No interaction,,,
OC(c1cc(C(F)(F)F)nc2c(C(F)(F)F)cccc12)C1CCCCN1 (stereo not shown) [Mefloquine],,0.00605,142,,,,,,0.0312,716,0.861
CN(C)c1ccc2nc3ccc(=[N+](C)C)cc-3sc2c1 [Methylene blue],,,,,,475,,,,,
